# How the values were obtained:
# [1] = target: T1, human phosphodiesterase 5 (PDE 5) (Homo sapiens, UniProt O76074); assay: Inhibition of human phosphodiesterase 5 (PDE 5); format: biochemical; settings: PDE 5 preparation from human platelets; in some cases means of individual determinations
# T1 construct: PDE 5 preparations are obtained from human platelets by disruption; from tissue; host or cells: human platelets
# Method: B-3. Inhibition of Human Phosphodiesterase 5 (PDE 5)
# PDE 5 preparations are obtained from human platelets by disruption (Microfluidizer®, 800 bar, 3 passes), followed by centrifugation (75 000 g, 60 min, 4° C.) and ion exchange chromatography of the supernatant on a Mono Q 10/10 column (linear sodium chloride gradient, elution with a 0.2-0.3M solution of sodium chloride in buffer (20 mM Hepes pH 7.2, 2 mM magnesium chloride). Fractions having PDE 5 activity are combined (PDE 5 preparation) and stored at −80° C.
# To determine their in vitro action on human PDE 5, the test substances are dissolved in 100% DMSO and serially diluted. Typically, dilution series (1:3) from 200 μM to 0.091 μM are prepared (resulting final concentrations in the test: 4 μM to 0.0018 μM). In each case 2 μl of the diluted substance solutions are placed into the wells of microtitre plates (Isoplate-96/200W; Perkin Elmer). Subsequently, 50 μl of a dilution of the above-described PDE 5 preparation are added. The dilution of the PDE 5 preparation is chosen such that during the later incubation less than 70% of the substrate are converted (typical dilution: 1:100; dilution buffer: 50 mM tris/hydrochloric acid pH 7.5, 8.3 mM magnesium chloride, 1.7 mM EDTA, 0.2% BSA). The substrate, [8-^3H] cyclic guanosine-3′,5′-monophosphate (1 μCi/μl; Perkin Elmer), is diluted 1:2000 with assay buffer (50 mM tris/hydrochloric acid pH 7.5, 8.3 mM magnesium chloride, 1.7 mM EDTA) to a concentration of 0.0005 μCi/μl. By addition of 50 μl (0.025 μCi) of the diluted substrate, the enzyme reaction is finally started. The test mixtures are incubated at room temperature for 60 min and the reaction is stopped by adding 25 μl of a suspension of 18 mg/ml yttrium scintillation proximity beads in water (phosphodiesterase beads for SPA assays, RPNQ 0150, Perkin Elmer). The microtitre plates are sealed with a film and left to stand at room temperature for 60 min. Subsequently, the plates are analysed for 30 s per well in a Microbeta scintillation counter (Perkin Elmer). IC50 values are determined using the graphic plot of the substance concentration against percentage PDE 5 inhibition.
# [2] = target: T2, recombinant guanylate cyclase reporter cell line (Rattus norvegicus, UniProt P19686+P20595); assay: Effect on a recombinant guanylate cyclase reporter cell line; format: cell-based; settings: MEC = minimum effective concentration; in some cases means of individual determinations
# T2 construct: expressed in transfected cells
# T2 sequence (P19686 1-690): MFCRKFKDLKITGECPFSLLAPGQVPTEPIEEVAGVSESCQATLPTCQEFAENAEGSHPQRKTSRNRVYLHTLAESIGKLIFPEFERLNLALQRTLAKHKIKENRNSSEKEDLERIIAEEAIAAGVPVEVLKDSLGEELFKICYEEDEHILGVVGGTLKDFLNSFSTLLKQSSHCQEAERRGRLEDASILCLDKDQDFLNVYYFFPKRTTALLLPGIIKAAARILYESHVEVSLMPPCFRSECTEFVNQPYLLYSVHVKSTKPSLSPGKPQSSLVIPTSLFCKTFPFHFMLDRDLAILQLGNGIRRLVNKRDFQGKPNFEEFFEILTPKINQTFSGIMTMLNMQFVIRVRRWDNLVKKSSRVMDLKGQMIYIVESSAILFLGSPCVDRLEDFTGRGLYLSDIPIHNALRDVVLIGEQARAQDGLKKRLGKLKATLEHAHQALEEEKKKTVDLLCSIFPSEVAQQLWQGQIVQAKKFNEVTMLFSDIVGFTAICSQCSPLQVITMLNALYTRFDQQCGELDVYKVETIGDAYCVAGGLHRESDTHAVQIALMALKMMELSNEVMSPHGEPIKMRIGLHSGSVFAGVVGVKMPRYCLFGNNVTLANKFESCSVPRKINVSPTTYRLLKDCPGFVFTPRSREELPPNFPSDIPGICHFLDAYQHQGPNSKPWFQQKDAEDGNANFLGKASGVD
# T2 sequence (P20595 1-619): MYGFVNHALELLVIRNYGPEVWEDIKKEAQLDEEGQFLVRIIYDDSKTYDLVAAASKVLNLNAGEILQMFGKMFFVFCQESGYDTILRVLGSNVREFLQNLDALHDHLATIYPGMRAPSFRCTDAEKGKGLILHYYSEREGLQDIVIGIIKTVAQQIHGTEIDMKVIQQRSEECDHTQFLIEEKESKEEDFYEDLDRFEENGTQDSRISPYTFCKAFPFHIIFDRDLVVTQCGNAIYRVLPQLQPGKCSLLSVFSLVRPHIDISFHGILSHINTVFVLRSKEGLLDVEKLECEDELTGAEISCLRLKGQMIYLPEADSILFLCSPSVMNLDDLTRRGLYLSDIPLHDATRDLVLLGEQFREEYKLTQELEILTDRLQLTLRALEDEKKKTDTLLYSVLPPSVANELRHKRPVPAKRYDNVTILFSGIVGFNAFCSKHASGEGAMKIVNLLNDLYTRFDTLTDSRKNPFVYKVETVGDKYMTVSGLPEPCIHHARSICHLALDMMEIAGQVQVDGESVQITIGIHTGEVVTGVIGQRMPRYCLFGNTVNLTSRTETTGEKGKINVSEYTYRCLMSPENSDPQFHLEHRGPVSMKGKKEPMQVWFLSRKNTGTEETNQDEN
# Method: B-2. Effect on a Recombinant Guanylate Cyclase Reporter Cell Line
# The cellular activity of the compounds of the invention is determined using a recombinant guanylate cyclase reporter cell line, as described in F. Wunder et al., Anal. Biochem. 2005, 339, 104-112. Representative values (MEC=minimum effective concentration) for the compounds of the invention are shown in the table below (Table 1B; in some cases as means of individual determinations): […]
SMILES,IC50 [1],MEC [2]
"CC1(C)C(=O)Nc2nc(-c3nn(Cc4ccccc4F)c4ncccc34)nc(C(=O)NC3CCOCC3)c21 [Example 98, 2-[1-(2-fluorobenzyl)-1H-pyrazolo[3,4-b]pyridin-3-yl]-5,5-dimethyl-6-oxo-N-(tetrahydro-2H-pyran-4-yl)-6,7-dihydro-5H-pyrrolo[2,3-d]pyrimidine-4-carboxamide]",33 nM,1 µM
"Cc1nc2c(cc1F)c(-c1nc3c(c(C(N)=O)n1)C(C)(C(F)(F)F)C(=O)N3)nn2Cc1c(F)ccc(F)c1F (single isomer, unassigned; ent-2) [Example 17, ent-2-[5-Fluoro-6-methyl-1-(2,3,6-trifluorobenzyl)-1H-pyrazolo[3,4-b]pyridin-3-yl]-5-methyl-6-oxo-5-(trifluoromethyl)-6,7-dihydro-5H-pyrrolo[2,3-d]pyrimidine-4-carboxamide (enantiomer B)]",280 nM,0.03 µM
"CC1(C)C(=O)Nc2nc(-c3nn(Cc4ccccc4F)c4ncccc34)nc(C(=O)NCC3CCCC3)c21 [Example 92, N-(cyclopentylmethyl)-2-[1-(2-fluorobenzyl)-1H-pyrazolo[3,4-b]pyridin-3-yl]-5,5-dimethyl-6-oxo-6,7-dihydro-5H-pyrrolo[2,3-d]pyrimidine-4-carboxamide]",35 nM,0.3 µM
CC1(C)C(=O)Nc2nc(-c3nn(Cc4ccccc4F)c4ncc(F)cc34)nc(C(=O)NCC3CC3)c21 [Example 49],33 nM,0.1 µM
"CC1(C)C(=O)Nc2nc(-c3nn(Cc4ccccc4F)c4ncccc34)nc(C(N)=O)c21 [Example 1, 2-[1-(2-Fluorobenzyl)-1H-pyrazolo[3,4-b]pyridin-3-yl]-5,5-dimethyl-6-oxo-6,7-dihydro-5H-pyrrolo[2,3-d]pyrimidine-4-carboxamide]",20 nM,0.065 µM
"Cn1ccc(NC(=O)c2nc(-c3nn(Cc4ccccc4F)c4ncccc34)nc3c2C(C)(C)C(=O)N3)n1 [Example 70, 2-[1-(2-fluorobenzyl)-1H-pyrazolo[3,4-b]pyridin-3-yl]-5,5-dimethyl-N-(1-methyl-1H-pyrazol-3-yl)-6-oxo-6,7-dihydro-5H-pyrrolo[2,3-d]pyrimidine-4-carboxamide]",24 nM,0.3 µM
"Cc1cc(NC(=O)c2nc(-c3nn(Cc4ccccc4F)c4ncccc34)nc3c2C(C)(C)C(=O)N3)ccn1 [Example 106, 2-[1-(2-fluorobenzyl)-1H-pyrazolo[3,4-b]pyridin-3-yl]-5,5-dimethyl-N-(2-methylpyridin-4-yl)-6-oxo-6,7-dihydro-5H-pyrrolo[2,3-d]pyrimidine-4-carboxamide]",,0.3 µM
"CN(CCC(N)=O)C(=O)c1nc(-c2nn(Cc3ccccc3F)c3ncccc23)nc2c1C(C)(C)C(=O)N2 [Example 110, N-(3-amino-3-oxopropyl)-2-[1-(2-fluorobenzyl)-1H-pyrazolo[3,4-b]pyridin-3-yl]-N,5,5-trimethyl-6-oxo-6,7-dihydro-5H-pyrrolo[2,3-d]pyrimidine-4-carboxamide]",,1 µM
"Cc1cnccc1NC(=O)c1nc(-c2nn(Cc3ccccc3F)c3ncccc23)nc2c1C(C)(C)C(=O)N2 [Example 101, 2-[1-(2-fluorobenzyl)-1H-pyrazolo[3,4-b]pyridin-3-yl]-5,5-dimethyl-N-(3-methylpyridin-4-yl)-6-oxo-6,7-dihydro-5H-pyrrolo[2,3-d]pyrimidine-4-carboxamide]",,0.3 µM
"CC(C)(C)CNC(=O)c1nc(-c2nn(Cc3ccccc3F)c3ncccc23)nc2c1C(C)(C)C(=O)N2 [Example 102, N-(2,2-dimethylpropyl)-2-[1-(2-fluorobenzyl)-1H-pyrazolo[3,4-b]pyridin-3-yl]-5,5-dimethyl-6-oxo-6,7-dihydro-5H-pyrrolo[2,3-d]pyrimidine-4-carboxamide]",,0.3 µM
"CC1(C)C(=O)Nc2nc(-c3nn(Cc4ccccc4F)c4ncccc34)nc(C(=O)NCC(N)=O)c21 [Example 75, N-(2-amino-2-oxoethyl)-2-[1-(2-fluorobenzyl)-1H-pyrazolo[3,4-b]pyridin-3-yl]-5,5-dimethyl-6-oxo-6,7-dihydro-5H-pyrrolo[2,3-d]pyrimidine-4-carboxamide]",,0.3 µM

# Second part, the compound after the results:
IC50 [1],MEC [2],SMILES
33 nM,0.3 µM,"CC(C)CCNC(=O)c1nc(-c2nn(Cc3ccccc3F)c3ncccc23)nc2c1C(C)(C)C(=O)N2 [Example 132, 2-[1-(2-fluorobenzyl)-1H-pyrazolo[3,4-b]pyridin-3-yl]-5,5-dimethyl-N-(3-methylbutyl)-6-oxo-6,7-dihydro-5H-pyrrolo[2,3-d]pyrimidine-4-carboxamide]"
21 nM,0.1 µM,"CC1(C)C(=O)Nc2nc(-c3nn(Cc4ccccc4F)c4ncccc34)nc(C(=O)NCc3ccncc3)c21 [Example 118, 2-[1-(2-fluorobenzyl)-1H-pyrazolo[3,4-b]pyridin-3-yl]-5,5-dimethyl-6-oxo-N-(pyridin-4-ylmethyl)-6,7-dihydro-5H-pyrrolo[2,3-d]pyrimidine-4-carboxamide]"
,1 µM,"CC(C)(C)CCNC(=O)c1nc(-c2nn(Cc3ccccc3F)c3ncccc23)nc2c1C(C)(C)C(=O)N2 [Example 135, N-(3,3-dimethylbutyl)-2-[1-(2-fluorobenzyl)-1H-pyrazolo[3,4-b]pyridin-3-yl]-5,5-dimethyl-6-oxo-6,7-dihydro-5H-pyrrolo[2,3-d]pyrimidine-4-carboxamide]"
,1 µM,"CC1(C)C(=O)Nc2nc(-c3nn(Cc4ccccc4F)c4ncccc34)nc(C(=O)Nc3ccncc3)c21 [Example 116, 2-[1-(2-fluorobenzyl)-1H-pyrazolo[3,4-b]pyridin-3-yl]-5,5-dimethyl-6-oxo-N-(pyridin-4-yl)-6,7-dihydro-5H-pyrrolo[2,3-d]pyrimidine-4-carboxamide]"
,1 µM,"CCCCCCNC(=O)c1nc(-c2nn(Cc3ccccc3F)c3ncccc23)nc2c1C(C)(C)C(=O)N2 [Example 124, 2-[1-(2-fluorobenzyl)-1H-pyrazolo[3,4-b]pyridin-3-yl]-N-hexyl-5,5-dimethyl-6-oxo-6,7-dihydro-5H-pyrrolo[2,3-d]pyrimidine-4-carboxamide]"
